Four sequences from patent US20070128217A1 (priority 2003, published 2007) can be followed below.

Test [1] deals with rabbit serum obtained by immunizing a rabbit with the SARS-CoV strain Frankfurt 1. The class given is binding. Further details: Binding of a rabbit serum to linear peptides / Binding of a rabbit serum to looped peptides / Rabbit serum linear peptides / Rabbit serum looped peptides / Binding of a rabbit serum to linear peptides of protein N of SARS-CoV Urbani (Rabbit serum linear peptides) / Binding of a rabbit serum to looped/cyclic peptides of protein N of SARS-CoV Urbani (Rabbit serum looped peptides): unit not given here.

For test [2], the system named is control sera (pooled serum of ten healthy LUMC hospital workers; commercial negative donor pooled serum from the Dutch bloodbank). Format: binding, human. Further details: Binding of Control serum LUMC to linear peptides / Binding of Control serum Blood-bank to linear peptides / Binding of Control serum LUMC to looped peptides / Binding of Control Serum Blood-Bank to Looped peptides / Binding of Control serum LUMC to linear peptides of the protein M of SARS-CoV Urbani / Binding of Control serum Blood-bank to linear peptides of the protein M of SARS-CoV Urbani / Binding of Control serum LUMC to looped peptides of the protein M of SARS-CoV Urbani / Binding of Control Serum Blood-Bank to Looped peptides of the protein M of SARS-CoV Urbani: unit not given here.

Test [3] concerns antibodies in sera from SARS patients (sera 1a, 1b, 2, 6, 37, 62, London, SARS-yellow, SARS-green). Format: binding, human. Set-up: Binding of serum 6 to linear peptides of protein X1 of SARS-CoV Urbani / Binding of serum 37 to linear peptides of protein X1 of SARS-CoV Urbani / Binding of serum 6 to looped/cyclic peptide (PEPSCAN-ELISA) / Binding of serum 37 to looped/cyclic peptide (PEPSCAN-ELISA) / Binding of serum 37 to looped/cyclic peptides of protein X1 of SARS-CoV Urbani / Binding of serum 6 to linear peptides of protein X2 / Binding of serum 37 to linear peptides of protein X2 / Binding of serum 37 to looped/cyclic peptides of protein X2 of SARS-CoV Urbani / Binding of serum 6 to linear peptides of protein M of SARS-CoV Urbani / Binding of serum 37 to linear peptides of protein M of SARS-CoV Urbani / Binding of serum 6 to looped/cyclic peptides of protein M of SARS-CoV Urbani / Binding of serum 37 to looped/cyclic peptides of protein M of SARS-CoV Urbani / Binding of serum 6 to linear peptides of protein X3 of SARS-CoV Urbani / Binding of serum 37 to linear peptides of protein X3 of SARS-CoV Urbani / Binding of serum 37 to looped/cyclic peptides of protein X3 of SARS-CoV Urbani / Binding of serum 6 to linear peptides of protein X4 of SARS-CoV Urbani / Binding of serum 37 to linear peptides of protein X4 of SARS-CoV Urbani / Binding of serum 37 to looped/cyclic peptides of protein X4 of SARS-CoV Urbani / Binding of serum 6 to linear peptides of protein X5 of SARS-CoV Urbani / Binding of serum 37 to linear peptides of protein X5 of SARS-CoV Urbani / Binding of serum 37 to looped/cyclic peptides of protein X5 of SARS-CoV Urbani / Binding of serum 6 to linear peptides of protein N of SARS-CoV Urbani / Binding of serum 37 to linear peptides of protein N of SARS-CoV Urbani / Binding of serum 6 to linear peptide (PEPSCAN-ELISA) / Binding of serum 1a to looped/cyclic peptides of protein N of SARS-CoV Urbani / Binding of serum 1b to looped/cyclic peptides of protein N of SARS-CoV Urbani / Binding of serum 2 to looped/cyclic peptides of protein N of SARS-CoV Urbani / Binding of serum 6 to looped/cyclic peptides of protein N of SARS-CoV Urbani / Binding of serum 37 to looped/cyclic peptides of protein N of SARS-CoV Urbani / Binding of serum 62 to looped/cyclic peptides of protein N of SARS-CoV Urbani / Binding of serum London to looped/cyclic peptides of protein N of SARS-CoV Urbani / Binding of serum SARS-green to looped/cyclic peptides of protein N of SARS-CoV Urbani: unit not given here.

ILLNVPLRGTIVTRP: in test [1], the “Rabbit serum linear peptides” value is 0.0 and the “Rabbit serum looped peptides” value came out at 0.2. Also, in test [2], the “Binding of Control Serum Blood-Bank to Looped peptides of the protein M of SARS-CoV Urbani” value amounted to 0.5, the “Binding of Control serum Blood-bank to linear peptides of the protein M of SARS-CoV Urbani” value turned out to be 0.6, the “Binding of Control serum LUMC to linear peptides of the protein M of SARS-CoV Urbani” value is recorded as 0.4 and the “Binding of Control serum LUMC to looped peptides of the protein M of SARS-CoV Urbani” value turned out to be 0.5. For the same sequence, in test [3], the “Binding of serum 1a to linear peptides of protein M of SARS-CoV Urbani” value came to 0.6, the “Binding of serum 1b to linear peptides of protein M of SARS-CoV Urbani” value is given as 0.4, the “Binding of serum 2 to linear peptides of protein M of SARS-CoV Urbani” value is 0.4 and the “Binding of serum 6 to linear peptides of protein M of SARS-CoV Urbani” value is 0.2. Also, in test [3], the “Binding of serum 37 to linear peptides of protein M of SARS-CoV Urbani” value came to 0.4, the “Binding of serum 62 to linear peptides of protein M of SARS-CoV Urbani” value was 0.4, the “Binding of serum London to linear peptides of protein M of SARS-CoV Urbani” value was 0.3 and the “Binding of serum SARS-green to linear peptides of protein M of SARS-CoV Urbani” value came out at 0.4. In test [3], the “Binding of serum SARS-yellow to linear peptides of protein M of SARS-CoV Urbani” value was 0.2; the “Recognition of the peptide by sera of SARS-CoV infected individuals, and form (linear, looped/cyclic) in which it is recognized” value is recorded as “recognized in looped/cyclic form”.
On to ILVRYNTRGNTYSTA, for which, in test [1], the “Rabbit serum linear peptides” value was 0.9 and the “Rabbit serum looped peptides” value amounted to 0.8. For the same sequence, in test [2], the “Binding of Control Serum Blood-Bank to Looped peptides” value was 0.4, the “Binding of Control serum Blood-bank to linear peptides” value is 0.7, the “Binding of Control serum LUMC to linear peptides” value was 0.5 and the “Binding of Control serum LUMC to looped peptides” value turned out to be 0.6. For the same sequence, in test [3], the “Binding of serum 1a to linear peptides of protein X5 of SARS-CoV Urbani” value was determined as 0.7, the “Binding of serum 1a to looped/cyclic peptides of protein X5 of SARS-CoV Urbani” value is on record as 0.5, the “Binding of serum 1b to linear peptides of protein X5 of SARS-CoV Urbani” value came to 0.4 and the “Binding of serum 1b to looped/cyclic peptides of protein X5 of SARS-CoV Urbani” value worked out at 0.3. In addition, in test [3], the “Binding of serum 2 to linear peptides of protein X5 of SARS-CoV Urbani” value was found to be 0.6, the “Binding of serum 2 to looped/cyclic peptides of protein X5 of SARS-CoV Urbani” value is reported as 0.6, the “Binding of serum 6 to linear peptides of protein X5 of SARS-CoV Urbani” value turned out to be 0.7 and the “Binding of serum 6 to looped/cyclic peptides of protein X5 of SARS-CoV Urbani” value turned out to be 0.6. In addition, in test [3], the “Binding of serum 37 to linear peptides of protein X5 of SARS-CoV Urbani” value stood at 0.6, the “Binding of serum 37 to looped/cyclic peptides of protein X5 of SARS-CoV Urbani” value came to 0.4, the “Binding of serum 62 to linear peptides of protein X5 of SARS-CoV Urbani” value is 0.7 and the “Binding of serum 62 to looped/cyclic peptides of protein X5 of SARS-CoV Urbani” value is recorded as 0.8. Further, in test [3], the “Binding of serum London to linear peptides of protein X5 of SARS-CoV Urbani” value is 0.6, the “Binding of serum London to looped/cyclic peptides of protein X5 of SARS-CoV Urbani” value worked out at 0.2, the “Binding of serum SARS-green to linear peptides of protein X5 of SARS-CoV Urbani” value was found to be 0.5 and the “Binding of serum SARS-green to looped/cyclic peptides of protein X5 of SARS-CoV Urbani” value worked out at 0.3. Moreover, in test [3], the “Binding of serum SARS-yellow to linear peptides of protein X5 of SARS-CoV Urbani” value was 0.2 and the “Binding of serum SARS-yellow to looped/cyclic peptides of protein X5 of SARS-CoV Urbani” value is on record as 0.8.
For the sequence IPLQASLPFGWLVIG, in test [1], the “Binding of a rabbit serum to linear peptides” value is given as 0.1 and the “Binding of a rabbit serum to looped peptides” value is 0.5. For the same sequence, in test [2], the “Binding of Control Serum Blood-Bank to Looped peptides” value is given as 0.6, the “Binding of Control serum Blood-bank to linear peptides” value stood at 0.7, the “Binding of Control serum LUMC to linear peptides” value is given as 0.8 and the “Binding of Control serum LUMC to looped peptides” value stood at 0.6. Besides, in test [3], the “Binding of serum 1a to linear peptides of protein X1 of SARS-CoV Urbani” value came out at 0.8, the “Binding of serum 1a to looped/cyclic peptide (PEPSCAN-ELISA)” value came out at 0.6, the “Binding of serum 1b to linear peptides of protein X1 of SARS-CoV Urbani” value came out at 0.6 and the “Binding of serum 1b to looped/cyclic peptide (PEPSCAN-ELISA)” value came out at 0.4. Further, in test [3], the “Binding of serum 2 to linear peptides of protein X1 of SARS-CoV Urbani” value was 0.6, the “Binding of serum 2 to looped/cyclic peptide (PEPSCAN-ELISA)” value stood at 0.4, the “Binding of serum 6 to linear peptides of protein X1 of SARS-CoV Urbani” value turned out to be 0.5 and the “Binding of serum 6 to looped/cyclic peptide (PEPSCAN-ELISA)” value came to 0.3. In addition, in test [3], the “Binding of serum 37 to linear peptides of protein X1 of SARS-CoV Urbani” value is on record as 0.7, the “Binding of serum 37 to looped/cyclic peptide (PEPSCAN-ELISA)” value is 0.5, the “Binding of serum 62 to linear peptides of protein X1 of SARS-CoV Urbani” value is 0.6 and the “Binding of serum 62 to looped/cyclic peptide (PEPSCAN-ELISA)” value is 0.6. Besides, in test [3], the “Binding of serum London to linear peptides of protein X1 of SARS-CoV Urbani” value turned out to be 0.3, the “Binding of serum London to looped/cyclic peptide (PEPSCAN-ELISA)” value is 0.2, the “Binding of serum SARS-green to linear peptides of protein X1 of SARS-CoV Urbani” value came to 0.4 and the “Binding of serum SARS-green to looped/cyclic peptide (PEPSCAN-ELISA)” value turned out to be 0.3. For the same sequence, in test [3], the “Binding of serum SARS-yellow to linear peptides of protein X1 of SARS-CoV Urbani” value amounted to 0.5 and the “Binding of serum SARS-yellow to looped/cyclic peptide (PEPSCAN-ELISA)” value was determined as 0.3.
In the case of IPYNSVTDTIVVTEG, in test [1], the “Binding of a rabbit serum to linear peptides” value is 0.1 and the “Binding of a rabbit serum to looped peptides” value was 0.3. In addition, in test [2], the “Binding of Control Serum Blood-Bank to Looped peptides” value is reported as 0.6, the “Binding of Control serum Blood-bank to linear peptides” value is given as 0.4, the “Binding of Control serum LUMC to linear peptides” value turned out to be 0.5 and the “Binding of Control serum LUMC to looped peptides” value turned out to be 0.4. In test [3], the “Binding of serum 1a to linear peptides of protein X1 of SARS-CoV Urbani” value turned out to be 0.7, the “Binding of serum 1a to looped/cyclic peptides of protein X1 of SARS-CoV Urbani” value worked out at 0.5, the “Binding of serum 1b to linear peptides of protein X1 of SARS-CoV Urbani” value is 0.5 and the “Binding of serum 1b to looped/cyclic peptides of protein X1 of SARS-CoV Urbani” value was 0.4. In test [3], the “Binding of serum 2 to linear peptides of protein X1 of SARS-CoV Urbani” value came to 0.5, the “Binding of serum 2 to looped/cyclic peptides of protein X1 of SARS-CoV Urbani” value was 0.4, the “Binding of serum 6 to linear peptides of protein X1 of SARS-CoV Urbani” value worked out at 0.4 and the “Binding of serum 6 to looped/cyclic peptides of protein X1 of SARS-CoV Urbani” value was found to be 0.3. Moreover, in test [3], the “Binding of serum 37 to linear peptides of protein X1 of SARS-CoV Urbani” value is 0.6, the “Binding of serum 37 to looped/cyclic peptides of protein X1 of SARS-CoV Urbani” value was found to be 0.5, the “Binding of serum 62 to linear peptides of protein X1 of SARS-CoV Urbani” value was found to be 0.4 and the “Binding of serum 62 to looped/cyclic peptides of protein X1 of SARS-CoV Urbani” value is given as 0.5. Moreover, in test [3], the “Binding of serum London to linear peptides of protein X1 of SARS-CoV Urbani” value is 0.2, the “Binding of serum London to looped/cyclic peptides of protein X1 of SARS-CoV Urbani” value worked out at 0.2, the “Binding of serum SARS-green to linear peptides of protein X1 of SARS-CoV Urbani” value was determined as 0.3 and the “Binding of serum SARS-green to looped/cyclic peptides of protein X1 of SARS-CoV Urbani” value was determined as 0.3. Moreover, in test [3], the “Binding of serum SARS-yellow to linear peptides of protein X1 of SARS-CoV Urbani” value is recorded as 0.4 and the “Binding of serum SARS-yellow to looped/cyclic peptides of protein X1 of SARS-CoV Urbani” value is on record as 0.2.
